Data set [1] in a line: Toxicity against human Leukocyte cells assessed induction of structural damage by microscopy. It counts as cell-based.
The nature of data set [2]: Toxicity against human Leukocyte cells assessed as reduction in cell viability by trypan blue exclusion assay. The data set is classed as cell-based.
The nature of data set [3]: Genotoxicity in human Leukocyte cells assessed as induction of DNA single strand breaks by single gel electrophoresis based alkaline comet assay. It counts as toxicity, cell-based.
The subject of data set [4] is Nakaseomyces glabratus. The experiment in a line: Antifungal activity against Candida glabrata clinical isolates by broth microdilution method. The data set is classed as functional. (In general: Dilution methods test growth across graded concentrations, often in twofold steps.)
Data set [5] has as its system Candida tropicalis. Put plainly: Antifungal activity against Candida tropicalis clinical isolates by broth microdilution method. The data set is classed as functional.
In data set [6] the test system is Trichosporon asahii. Put plainly: Antifungal activity against Trichosporon asahii clinical isolates by broth microdilution method. It counts as functional.
For data set [7], the system named is Candida parapsilosis. Put plainly: Antifungal activity against Candida parapsilosis clinical isolates by broth microdilution method. Particulars: Lodderomyces parapsilosis. The data set is classed as functional.
The test system of data set [8] is Nakaseomyces glabratus. Put plainly: Inhibition of ergosterol biosynthesis in Candida glabrata clinical isolates assessed as reduction in mean cellular ergosterol content by spectrophotometry. It counts as functional.
Data set [9] concerns Candida tropicalis. Put plainly: Inhibition of ergosterol biosynthesis in Candida tropicalis clinical isolates assessed as reduction in mean cellular ergosterol content by spectrophotometry. It counts as functional.
The subject of data set [10] is Candida parapsilosis. The experiment in a line: Inhibition of ergosterol biosynthesis in Candida parapsilosis clinical isolates assessed as reduction in mean cellular ergosterol content by spectrophotometry. The data set is classed as functional.
Data set [11] deals with Trichosporon asahii. Put plainly: Inhibition of ergosterol biosynthesis in Trichosporon asahii clinical isolates assessed as reduction in mean cellular ergosterol content by spectrophotometry. The data set is classed as functional.

Structures are written as SMILES. Values after ≈ are worked out from the molar mass of the structure shown.

Turning to `CCCCCCCCCCn1cc[n+](C)c1.[Cl-]`, the Activity entry in [1], in data set [2] and in [3] was “Non-toxic” each time. The MIC (in general, the lowest concentration found to suppress growth) against Nakaseomyces glabratus [4] was 7.8 µg/mL; in the data set on Candida tropicalis [5], 0.9 µg/mL; in the data set on Trichosporon asahii [6], 7.8 µg/mL; against Candida parapsilosis [7], 1.9 µg/mL. Moreover, the MIC50 – broadly, an inhibitory concentration at the 50% level, which refers to growth in some studies and to a panel of isolates in others – in the data set with Nakaseomyces glabratus [4] stood at 15.6 µg/mL; in the data set on Candida tropicalis [5], 1.9 µg/mL; against Trichosporon asahii [6] it was 31.2 µg/mL; with Candida parapsilosis [7], 7.8 µg/mL.

Take `CCCCCCCCCCCCCCCCn1cc[n+](C)c1.F[P-](F)(F)(F)(F)F`: the Activity result in [1], in [2] and in data set [3] was “Non-toxic” throughout. Moreover, the MIC in the data set with Nakaseomyces glabratus [4] worked out at 1.9 µg/mL; in the data set on Candida tropicalis [5] it was 0.9 µg/mL; in the data set on Trichosporon asahii [6], 15.6 µg/mL; against Candida parapsilosis [7], 0.9 µg/mL. The MIC50 with Nakaseomyces glabratus [4] was 3.9 µg/mL; in the data set with Candida tropicalis [5] it was 1.9 µg/mL; with Trichosporon asahii [6] it was 15.6 µg/mL; against Candida parapsilosis [7], 7.8 µg/mL.

Take `CCCCCCCCCCn1cc[n+](C)c1.CS(=O)(=O)[O-]`: the Activity entry in data set [1], in data set [2] and in data set [3] was “Non-toxic” throughout. For the same molecule, the minimal inhibitory concentration (MIC) came out at 15.6 µg/mL with Nakaseomyces glabratus [4], 1.9 µg/mL with Candida tropicalis [5], 31.2 µg/mL against Trichosporon asahii [6] and 1.9 µg/mL in the data set on Candida parapsilosis [7]. Moreover, the MIC50 with Nakaseomyces glabratus [4] came out at 31.2 µg/mL; with Candida tropicalis [5], 1.9 µg/mL; against Trichosporon asahii [6] it was 62.5 µg/mL; against Candida parapsilosis [7], 7.8 µg/mL.

In the case of `CCCCCCCCCCCCCCCCn1cc[n+](C)c1.F[B-](F)(F)F`, the Activity result in [1], in data set [2] and in data set [3] was “Non-toxic” in each case. Further, the “inhibition (INH)” value in the data set with Nakaseomyces glabratus [8], with Candida tropicalis [9], in the data set with Candida parapsilosis [10] and in the data set on Trichosporon asahii [11] was 33% throughout. The MIC is 0.9 µg/mL in the data set on Nakaseomyces glabratus [4], 0.9 µg/mL in the data set with Candida tropicalis [5], 1.95 µg/mL in the data set with Trichosporon asahii [6] and 0.4 µg/mL against Candida parapsilosis [7]. The MIC50 against Nakaseomyces glabratus [4] came out at 0.9 µg/mL; with Candida tropicalis [5] it was 0.9 µg/mL; in the data set with Trichosporon asahii [6] it was 3.9 µg/mL; with Candida parapsilosis [7], 3.9 µg/mL.

Regarding `CCCCCCCCCCCCCCn1cc[n+](C)c1.O=S(=O)([N-]S(=O)(=O)C(F)(F)F)C(F)(F)F`, the Activity result in data set [1], in data set [2] and in [3] was “Non-toxic” each time. Moreover, the MIC with Nakaseomyces glabratus [4] amounted to 3.9 µg/mL; with Candida tropicalis [5], 0.9 µg/mL; with Trichosporon asahii [6], 31.2 µg/mL; in the data set on Candida parapsilosis [7], 0.9 µg/mL. The MIC50 in the data set on Nakaseomyces glabratus [4] amounted to 15.6 µg/mL; against Candida tropicalis [5], 0.9 µg/mL; against Trichosporon asahii [6], 62.5 µg/mL; against Candida parapsilosis [7], 0.9 µg/mL.

For `CCCCCCCCCCCCCCCCn1cc[n+](C)c1.[Cl-]`, the Activity entry in data set [1], in [2] and in data set [3] was “Non-toxic” in each case. Also, the MIC in the data set with Nakaseomyces glabratus [4], with Candida tropicalis [5], in the data set on Trichosporon asahii [6] and against Candida parapsilosis [7] was 0.9 µg/mL throughout. Also, the MIC50 in the data set on Nakaseomyces glabratus [4], in the data set on Candida tropicalis [5], with Trichosporon asahii [6] and in the data set with Candida parapsilosis [7] was 0.9 µg/mL throughout.

On to `OC(Cn1cncn1)(Cn1cncn1)c1ccc(F)cc1F` [FLUCONAZOLE], for which the MIC in the data set with Nakaseomyces glabratus [4] amounted to 4 µg/mL (≈ 13.1 µM); with Candida tropicalis [5] it was 2 µg/mL (≈ 6.53 µM); with Trichosporon asahii [6], 4 µg/mL (≈ 13.1 µM); against Candida parapsilosis [7], 1 µg/mL (≈ 3.27 µM). The MIC50 with Nakaseomyces glabratus [4] turned out to be 8 µg/mL (≈ 26.1 µM); against Candida tropicalis [5], 8 µg/mL (≈ 26.1 µM); with Trichosporon asahii [6], 8 µg/mL (≈ 26.1 µM); against Candida parapsilosis [7] it was 1 µg/mL (≈ 3.27 µM).

As for `CC(=O)N1CCN(c2ccc(OCC3COC(Cn4ccnc4)(c4ccc(Cl)cc4Cl)O3)cc2)CC1` (stereo unspecified) [KETOCONAZOLE], the MIC in the data set with Nakaseomyces glabratus [4] turned out to be 0.5 µg/mL (≈ 0.941 µM); against Candida tropicalis [5], 0.25 µg/mL (≈ 0.47 µM); in the data set on Trichosporon asahii [6], 0.25 µg/mL (≈ 0.47 µM); against Candida parapsilosis [7], 0.125 µg/mL (≈ 0.235 µM). The MIC50 amounted to 4 µg/mL (≈ 7.53 µM) against Nakaseomyces glabratus [4], 4 µg/mL (≈ 7.53 µM) in the data set on Candida tropicalis [5], 4 µg/mL (≈ 7.53 µM) in the data set with Trichosporon asahii [6] and 1 µg/mL (≈ 1.88 µM) with Candida parapsilosis [7].

Source of the values: ChEMBL document CHEMBL3132794, “Imidazolium salts as antifungal agents: activity against emerging yeast pathogens, without human leukocyte toxicity” (Medchemcomm, 2013).
